From patent publication US10077261B2, “Imidazolin-5-one derivative useful as FASN inhibitors for the treatment of cancer” (Janssen Pharmaceutica NV, priority 2012, dated 2018) come the findings set out here.

The assay deals with T1, hFASN enzyme (full length) (Homo sapiens, UniProt P49327).
T1 construct: 10 μL hFASN enzyme (full length, 300 ng, purified in house); made in house
Nature of the assay: Fatty Acid Synthase (FASN) inhibition scintillation proximity assay. Particulars: for inhibition at 10 µM: read-out: Human FASN % inhibition @ 10 μM, 10 μM test compound; for IC50: read-out: Human FASN pIC50 (converted). The class given is biochemical. In outline: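 Read-out relies on hydrophobic ³H-palmitate product, formed from ³H-acetyl-CoA and malonyl-CoA, binding streptavidin imaging beads, measured at 610±20 nm after at least 24 h. Full-length enzyme (300 ng) in phosphate buffer pH 7.5 with DTT; eight compound concentrations, 0.01–30 μM.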
(In a scintillation proximity assay essentially only radioactivity close to the scintillant gives light.)

SMILES strings stand for the structures.

T1 sequence (P49327 whole entry): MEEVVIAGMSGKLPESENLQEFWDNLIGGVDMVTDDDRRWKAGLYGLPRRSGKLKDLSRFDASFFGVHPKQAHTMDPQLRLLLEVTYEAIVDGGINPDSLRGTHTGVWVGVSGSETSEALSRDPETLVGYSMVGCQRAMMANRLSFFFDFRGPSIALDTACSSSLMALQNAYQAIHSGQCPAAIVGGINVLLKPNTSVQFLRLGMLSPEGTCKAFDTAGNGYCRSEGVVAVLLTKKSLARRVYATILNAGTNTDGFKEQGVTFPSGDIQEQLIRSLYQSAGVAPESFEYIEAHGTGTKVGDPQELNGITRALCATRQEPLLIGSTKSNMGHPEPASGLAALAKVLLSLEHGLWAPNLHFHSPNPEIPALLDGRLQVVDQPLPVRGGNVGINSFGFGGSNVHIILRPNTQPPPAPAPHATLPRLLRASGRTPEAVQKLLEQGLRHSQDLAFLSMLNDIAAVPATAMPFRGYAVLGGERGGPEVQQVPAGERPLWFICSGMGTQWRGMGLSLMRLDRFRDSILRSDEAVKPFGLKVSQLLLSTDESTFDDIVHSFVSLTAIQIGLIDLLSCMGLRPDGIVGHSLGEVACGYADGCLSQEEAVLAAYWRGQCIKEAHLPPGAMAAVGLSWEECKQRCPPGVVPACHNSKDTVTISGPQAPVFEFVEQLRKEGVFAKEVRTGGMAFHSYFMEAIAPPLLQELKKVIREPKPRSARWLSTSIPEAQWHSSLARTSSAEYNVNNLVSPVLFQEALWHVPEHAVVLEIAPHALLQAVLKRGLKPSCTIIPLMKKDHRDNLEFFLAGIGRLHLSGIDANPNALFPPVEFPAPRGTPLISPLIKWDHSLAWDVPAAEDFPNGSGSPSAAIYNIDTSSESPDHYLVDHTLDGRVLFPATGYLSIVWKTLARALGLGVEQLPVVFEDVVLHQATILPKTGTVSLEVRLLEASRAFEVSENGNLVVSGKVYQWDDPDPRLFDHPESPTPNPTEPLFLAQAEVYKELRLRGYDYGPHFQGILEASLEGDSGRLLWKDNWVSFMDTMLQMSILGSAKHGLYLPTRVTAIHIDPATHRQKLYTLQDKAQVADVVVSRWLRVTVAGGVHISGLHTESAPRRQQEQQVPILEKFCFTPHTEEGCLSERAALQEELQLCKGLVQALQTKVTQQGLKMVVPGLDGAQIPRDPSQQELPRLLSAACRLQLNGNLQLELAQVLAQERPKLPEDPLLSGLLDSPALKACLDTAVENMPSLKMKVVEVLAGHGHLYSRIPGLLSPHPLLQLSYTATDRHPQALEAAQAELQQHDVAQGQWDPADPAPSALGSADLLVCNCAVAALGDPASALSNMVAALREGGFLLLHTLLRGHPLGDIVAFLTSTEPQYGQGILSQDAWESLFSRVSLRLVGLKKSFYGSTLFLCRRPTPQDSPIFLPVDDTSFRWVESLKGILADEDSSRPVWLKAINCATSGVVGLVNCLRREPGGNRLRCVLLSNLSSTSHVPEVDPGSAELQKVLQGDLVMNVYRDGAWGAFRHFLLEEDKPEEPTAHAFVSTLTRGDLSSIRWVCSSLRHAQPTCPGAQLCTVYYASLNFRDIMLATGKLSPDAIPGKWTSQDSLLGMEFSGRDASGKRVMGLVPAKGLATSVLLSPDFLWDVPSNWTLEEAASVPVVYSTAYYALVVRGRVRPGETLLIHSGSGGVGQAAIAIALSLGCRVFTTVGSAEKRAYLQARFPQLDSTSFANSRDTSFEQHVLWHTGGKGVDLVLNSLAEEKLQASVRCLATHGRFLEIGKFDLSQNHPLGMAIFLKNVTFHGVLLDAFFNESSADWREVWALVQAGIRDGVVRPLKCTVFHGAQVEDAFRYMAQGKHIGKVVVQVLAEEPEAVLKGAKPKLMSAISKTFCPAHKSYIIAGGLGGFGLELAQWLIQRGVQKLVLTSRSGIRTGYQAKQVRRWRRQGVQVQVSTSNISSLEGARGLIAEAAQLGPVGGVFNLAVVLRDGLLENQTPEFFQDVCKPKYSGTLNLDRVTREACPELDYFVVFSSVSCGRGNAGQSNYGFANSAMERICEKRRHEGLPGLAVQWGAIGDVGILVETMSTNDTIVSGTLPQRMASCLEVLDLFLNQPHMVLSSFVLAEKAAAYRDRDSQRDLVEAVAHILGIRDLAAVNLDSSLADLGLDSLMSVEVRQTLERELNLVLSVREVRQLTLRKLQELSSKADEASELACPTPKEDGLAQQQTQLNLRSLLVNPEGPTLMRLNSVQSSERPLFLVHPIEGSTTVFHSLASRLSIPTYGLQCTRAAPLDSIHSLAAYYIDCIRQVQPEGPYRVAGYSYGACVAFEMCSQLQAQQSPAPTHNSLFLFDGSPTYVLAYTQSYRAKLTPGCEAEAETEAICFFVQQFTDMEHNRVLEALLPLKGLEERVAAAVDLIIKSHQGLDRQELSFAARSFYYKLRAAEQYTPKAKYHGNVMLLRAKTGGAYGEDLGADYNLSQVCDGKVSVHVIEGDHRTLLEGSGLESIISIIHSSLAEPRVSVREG

With `COC(=O)N1CC2(C1)N=C(c1ccc(-c3ccc4c(cnn4C)c3)cc1)N(C[C@@H]1CCN(C(=O)N3CCCC3)C1)C2=O` [compound 740, Methyl 6-[4-(1-methyl-1H-indazol-5-yl)phenyl]-8-oxo-7-{[(3S)-1-(pyrrolidin-1-ylcarbonyl)pyrrolidin-3-yl]methyl}-2,5,7-triazaspiro[3.4]oct-5-ene-2-carboxylate], the inhibition (in general, how much of the control response was suppressed) at 10 µM came to 46% and the IC50 is 8.91 µM.

With `CC(C)C(=O)N1CCC2(CC1)N=C(c1ccc(-c3ccc4[nH]ncc4c3)cc1)N(CC1CN(C(=O)C3CC3)C1)C2=O` [compound 754, 3-{[1-(Cyclopropylcarbonyl)azetidin-3-yl]methyl}-2-[4-(1H-indazol-5-yl)phenyl]-8-(2-methylpropanoyl)-1,3,8-triazaspiro[4.5]dec-1-en-4-one], the inhibition at 10 µM is 67% and the IC50 is 2.95 µM.

For the compound `COCCN1CCC2(CC1)N=C(c1ccc(-c3ccc4[nH]ncc4c3)cc1)N(CC1CN(C(=O)C3CC3)C1)C2=O` [compound 756], the inhibition at 10 µM was 82% and the IC50 was 1.58 µM.

With `O=C(C1CC1)N1CC(CN2C(=O)C3(CCN(CCO)CC3)N=C2c2ccc(-c3ccc4[nH]ncc4c3)cc2)C1` [compound 758, 3-{[1-(Cyclopropylcarbonyl)azetidin-3-yl]methyl}-8-(2-hydroxyethyl)-2-[4-(1H-indazol-5-yl)phenyl]-1,3,8-triazaspiro[4.5]dec-1-en-4-one], the inhibition at 10 µM is 71% and the IC50 was 3.39 µM.

For the compound `Cn1cc(-c2ccc(-c3ccc(C4=NC5(CCNCC5)C(=O)N4CC4CN(C(=O)C5CC5)C4)cc3)cc2)cn1` [compound 759, 3-{[1-(Cyclopropylcarbonyl)azetidin-3-yl]methyl}-2-[4′-(1-methyl-1H-pyrazol-4-yl)biphenyl-4-yl]-1,3,8-triazaspiro[4.5]dec-1-en-4-one], the inhibition at 10 µM stood at 38% and the IC50 is 9.12 µM.

For `CS(=O)(=O)N1CCC2(CC1)N=C(c1ccc(-c3ccc4occc4c3)cc1)N(CC1CN(C(=O)C3CC3)C1)C2=O` [compound 760, 2-[4-(1-Benzofuran-5-yl)phenyl]-3-{[1-(cyclopropylcarbonyl)azetidin-3-yl]methyl}-8-(methylsulfonyl)-1,3,8-triazaspiro[4.5]dec-1-en-4-one], the inhibition at 10 µM came to 62% and the IC50 is 4.79 µM.

As to `Cn1ncc2cc(-c3ccc(C4=NC5(CCN(S(C)(=O)=O)CC5)C(=O)N4CC4CN(C(=O)C5CC5)C4)cc3)ccc21` [compound 761, 3-{[1-(Cyclopropylcarbonyl)azetidin-3-yl]methyl}-2-[4-(1-methyl-1H-indazol-5-yl)phenyl]-8-(methylsulfonyl)-1,3,8-triazaspiro[4.5]dec-1-en-4-one], the inhibition at 10 µM was found to be 45% and the IC50 was about 7.59 µM.

Consider `CS(=O)(=O)N1CCC2(CC1)N=C(c1ccc(-c3ccc4[nH]ncc4c3)cc1)N(CC1CN(C(=O)C3CC3)C1)C2=O` [compound 763, 3-{[1-(Cyclopropylcarbonyl)azetidin-3-yl]methyl}-2-[4-(1H-indazol-5-yl)phenyl]-8-(methylsulfonyl)-1,3,8-triazaspiro[4.5]dec-1-en-4-one], for which the inhibition at 10 µM is 63% and the IC50 is about 5.37 µM.

`O=C(C1CC1)N1CC(CN2C(=O)C3(CCN(C(=O)C(F)(F)F)CC3)N=C2c2ccc(-c3ccc4occc4c3)cc2)C1` [compound 764, 2-[4-(1-Benzofuran-5-yl)phenyl]-3-{[1-(cycloprropylcarbonyl)azetidin-3-yl]methyl}-8-(trifluoroacetyl)-1,3,8-triazaspiro[4.5]dec-1-en-4-one]: the inhibition at 10 µM stood at 63% and the IC50 was about 4.37 µM.

For the compound `O=C(C1CC1)N1CC(CN2C(=O)C3(CCN(C(=O)C(F)(F)F)CC3)N=C2c2ccc(-c3ccc4[nH]ncc4c3)cc2)C1` [compound 766, 3-{[1-(Cyclopropylcarbonyl)azetidin-3-yl]methyl}-2-[4-(1H-indazol-5-yl)phenyl]-8-(trifluoroacetyl)-1,3,8-triazaspiro[4.5]dec-1-en-4-one], the inhibition at 10 µM came out at 67% and the IC50 is about 4.47 µM.

Regarding `CC(C)C(=O)N1CCC2(CC1)N=C(c1ccc(-c3ccc(-c4cnn(C)c4)cc3)cc1)N(CC1CN(C(=O)C3CC3)C1)C2=O` [compound 767, 3-{[1-(Cycloprropylcarbonyl)azetidin-3-yl]methyl}-8-(2-methylpropanoyl)-2-[4′-(1-methyl-1H-pyrazol-4-yl)biphenyl-4-yl]-1,3,8-triazaspiro[4.5]dec-1-en-4-one], the inhibition at 10 µM turned out to be 76% and the IC50 is 1.91 µM.

For `CN(C)CC(=O)N1CCC2(CC1)N=C(c1ccc(-c3ccc(-c4cnn(C)c4)cc3)cc1)N(CC1CN(C(=O)C3CC3)C1)C2=O` [compound 768, 3-{[1-(Cyclopropylcarbonyl)azetidin-3-yl]methyl}-8-(N,N-dimethylglycyl)-2-[4′-(1-methyl-1H-pyrazol-4-yl)biphenyl-4-yl]-1,3,8-triazaspiro[4.5]dec-1-en-4-one], the inhibition at 10 µM amounted to 79% and the IC50 was 1.45 µM.

With `Cn1cc(-c2ccc(-c3ccc(C4=NC5(CCN(S(C)(=O)=O)CC5)C(=O)N4CC4CN(C(=O)C5CC5)C4)cc3)cc2)cn1` [compound 769, 3-{[1-(Cyclopropylcarbonyl)azetidin-3-yl]methyl}-2-[4′-(1-methyl-1H-pyrazol-4-yl)biphenyl-4-yl]-8-(methylsulfonyl)-1,3,8-triazaspiro[4.5]dec-1-en-4-one], the inhibition at 10 µM was found to be 60% and the IC50 is 5.01 µM.

Regarding `Cn1cc(-c2ccc(-c3ccc(C4=NC5(CCN(C(=O)C6CC6)CC5)C(=O)N4CC4CN(C(=O)C5CC5)C4)cc3)cc2)cn1` [compound 770, 8-(Cyclopropylcarbonyl)-3-{[1-(cyclopropylcarbonyl)azetidin-3-yl]methyl}-2-[4′-(1-methyl-1H-pyrazol-4-yl)biphenyl-4-yl]-1,3,8-triazaspiro[4.5]dec-1-en-4-one], the inhibition at 10 µM came to 77% and the IC50 is 2.19 µM.

As to `CC(C)N1CCC2(CC1)N=C(c1ccc(-c3ccc(-c4cnn(C)c4)cc3)cc1)N(CC1CN(C(=O)C3CC3)C1)C2=O` [compound 771, 3-{[1-(Cyclopropylcarbonyl)azetidin-3-yl]methyl}-8-(1-methylethyl)-2-[4′-(1-methyl-1H-pyrazol-4-yl)biphenyl-4-yl]-1,3,8-triazaspiro[4.5]dec-1-en-4-one], the inhibition at 10 µM was found to be 44% and the IC50 is 7.59 µM.

In the case of `Cn1cc(-c2ccc(-c3ccc(C4=NC5(CCN(CCO)CC5)C(=O)N4CC4CN(C(=O)C5CC5)C4)cc3)cc2)cn1` [compound 772, 3-{[1-(Cyclopropylcarbonyl)azetidin-3-yl]methyl}-8-(2-hydroxyethyl)-2-[4′-(1-methyl-1H-pyrazol-4-yl)biphenyl-4-yl]-1,3,8-triazaspiro[4.5]dec-1-en-4-one], the inhibition at 10 µM amounted to 64% and the IC50 is 3.98 µM.

`Cc1cc(-c2ccc3c(cnn3C)c2)ccc1C1=NC2(CC2)C(=O)N1CC1CN(C(=O)C2(O)CCC2)C1` [compound 796, 6-((1-(1-hydroxycyclobutanecarbonyl)azetidin-3-yl)methyl)-5-(2-methyl-4-(1-methyl-1H-indazol-5-yl)phenyl)-4,6-diazaspiro[2.4]hept-4-en-7-one]: the inhibition at 10 µM turned out to be 19% and the IC50 was over 10 µM.

Turning to `CC(C)(O)c1ccc(-c2ccc(C3=NC4(CC4)C(=O)N3CC3CN(C(=O)C4CC4)C3)cc2)cn1` [compound 797, 6-((1-(cyclopropanecarbonyl)azetidin-3-yl)methyl)-5-(4-(6-(2-hydroxypropan-2-yl)pyridin-3-yl)phenyl)-4,6-diazaspiro[2.4]hept-4-en-7-one], the inhibition at 10 µM amounted to 1% and the IC50 is over 10 µM.

As to `O=C(C1CC1)N1CC(CN2C(=O)C3(CC3)N=C2c2ccc(-c3ccc(C4CC4)nc3)cc2)C1` [compound 798, 6-((1-(cyclopropanecarbonyl)azetidin-3-yl)methyl)-5-(4-(6-cyclopropylpyridin-3-yl)phenyl)-4,6-diazaspiro[2.4]hept-4-en-7-one], the inhibition at 10 µM amounted to 30% and the IC50 was over 10 µM.

For the compound `O=C(C1CC1)N1CC(CN2C(=O)C3(CC3)N=C2c2ccc(-c3cnc4ncccc4c3)cc2)C1` [compound 799, 5-(4-(1,8-baphthyridin-3-yl)phenyl)-6-((1-(cyclopropanecarbonyl)azetidin-3-yl)methyl)-4,6-diazaspiro[2.4]hept-4-en-7-one], the inhibition at 10 µM stood at 39% and the IC50 is over 10 µM.

In the case of `N#CC1(c2ccc(-c3ccc(C4=NC5(CC5)C(=O)N4CC4CN(C(=O)C5CC5)C4)cc3)cn2)CC1` [compound 800, 1-(5-(4-(6-((1-(cyclopropanecarbonyl)azetidin-3-yl)methyl)-7-oxo-4,6-diazaspiro[2.4]hept-4-en-5-yl)phenyl)pyridin-2-yl)cyclopropanecarbonitrile], the inhibition at 10 µM is 16% and the IC50 is over 10 µM.

In the case of `O=C(C1CC1)N1CC(CN2C(=O)C3(CC3)N=C2c2ccc(-c3cnc4cccnc4c3)cc2)C1` [compound 801, 5-(4-(1,5-naphthyridin-3-yl)phenyl)-6-((1-(cyclopropanecarbonyl)azetidin-3-yl)methyl),4-6diazaspiro[2.4]hept-4-en-7-one], the inhibition at 10 µM worked out at 6% and the IC50 is over 10 µM.

Take `O=C(C1CC1)N1CC[C@@H](CN2C(=O)C3(CC3)N=C2c2ccc(-c3cncc(Cl)c3)cc2)C1` [compound 802, (R)-5-(4-(5-chlorppyridin-3-yl)phenyl)-6-((1-(cyclopropanecarbonyl)pyrrolidin-3-yl)methyl)-4,6-diazaspiro[2.4]hept-4-en-7-one]: the inhibition at 10 µM was determined as 24% and the IC50 is over 10 µM.
